Measured values reported in the NIST ThermoML archive (doi:10.1016/j.jct.2013.08.016).

How the values were obtained:
[1] = mn = molality of the nth substance listed, in mol/kg; settings: 101.3 kPa, Liquid; for viscosity: Capillary tube (Ostwald / Ubbelohde) method; for mass density: Pycnometric method; for speed of sound: Single path-length method
[2] = refractive index (Na D-line) (dimensionless); mn = molality of the nth substance listed, in mol/kg; settings: 101.3 kPa, Liquid, Standard Abbe refractometry

O=C1O[C@H]([C@@H](O)CO)C([O-])=C1O.[Na+] [sodium L-ascorbate] + O
Settings | mass density, [1] [kg/m3] | refractive index, [2] | speed of sound, [1] [m/s] | viscosity, [1] [mPa·s]
278.15 K, m1 = 0.0495 | 1005.25 | 1.3359 | 1432.4 | 1.564
278.15 K, m1 = 0.102 | 1010.89 | 1.338 | 1438.9 | 1.61
278.15 K, m1 = 0.1378 | 1014.72 | 1.3388 | 1443.6 | 1.633
278.15 K, m1 = 0.2009 | 1021.3 | 1.3411 | 1451.6 | 1.693
278.15 K, m1 = 0.2329 | 1024.63 | 1.3428 | 1456.6 | 1.727
278.15 K, m1 = 0.2951 | 1030.95 | 1.3448 | 1463.8 | 1.787
278.15 K, m1 = 0.3361 | 1035.04 | 1.3461 | 1469.1 | 1.828
278.15 K, m1 = 0.3968 | 1041.02 | 1.3485 | 1478.2 | 1.891
278.15 K, m1 = 0.4287 | 1044.29 | 1.3498 | 1480 | 1.925
278.15 K, m1 = 0.4929 | 1050.46 | 1.3519 | 1489.1 | 1.995
278.15 K, m1 = 0.5436 | 1055.28 | 1.3536 | 1494.6 | 2.052
278.15 K, m1 = 0.6275 | 1063.15 | 1.3564 | 1503.6 | 2.152
278.15 K, m1 = 0.6583 | 1065.96 | 1.3571 | 1509.1 | 2.192
278.15 K, m1 = 0.7407 | 1073.42 | 1.3602 | 1518.2 | 2.291
288.15 K, m1 = 0.0403 | 1003.38 | 1.3351 | 1470.4 | 1.167
288.15 K, m1 = 0.1263 | 1012.42 | 1.3373 | 1479.2 | 1.209
288.15 K, m1 = 0.1604 | 1015.94 | 1.3392 | 1483.6 | 1.24
288.15 K, m1 = 0.2478 | 1024.69 | 1.3423 | 1494.4 | 1.303
288.15 K, m1 = 0.301 | 1029.91 | 1.3439 | 1499.1 | 1.339
288.15 K, m1 = 0.3509 | 1034.82 | 1.346 | 1505.9 | 1.37
288.15 K, m1 = 0.4457 | 1043.86 | 1.3493 | 1518.2 | 1.45
288.15 K, m1 = 0.5156 | 1050.33 | 1.3502 | 1525.5 | 1.504
288.15 K, m1 = 0.5987 | 1057.95 | 1.3543 | 1532.7 | 1.575
288.15 K, m1 = 0.6446 | 1062.31 | 1.3558 | 1540 | 1.608
288.15 K, m1 = 0.6909 | 1066.4 | 1.3572 | 1545.5 | 1.652
288.15 K, m1 = 0.7466 | 1071.4 | 1.3592 | 1552 | 1.708
298.15 K, m1 = 0.0503 | 1002.31 | 1.3344 | 1501.9 | 0.9169
298.15 K, m1 = 0.1005 | 1007.49 | 1.3362 | 1507.2 | 0.9381
298.15 K, m1 = 0.1492 | 1012.47 | 1.3378 | 1512.6 | 0.9628
298.15 K, m1 = 0.1993 | 1017.5 | 1.3397 | 1518.1 | 0.9898
298.15 K, m1 = 0.2452 | 1022.1 | 1.3414 | 1522.5 | 1.007
298.15 K, m1 = 0.301 | 1027.58 | 1.3434 | 1527.6 | 1.04
298.15 K, m1 = 0.3456 | 1031.8 | 1.3449 | 1533.1 | 1.062
298.15 K, m1 = 0.4112 | 1038.01 | 1.347 | 1539.9 | 1.097
298.15 K, m1 = 0.4397 | 1040.84 | 1.3479 | 1542 | 1.113
298.15 K, m1 = 0.4892 | 1045.65 | 1.3495 | 1547.2 | 1.146
298.15 K, m1 = 0.5491 | 1051.09 | 1.3516 | 1554.4 | 1.183
298.15 K, m1 = 0.6035 | 1056.1 | 1.3534 | 1559.1 | 1.223
298.15 K, m1 = 0.6697 | 1062.08 | 1.3553 | 1565.3 | 1.257
298.15 K, m1 = 0.7314 | 1067.47 | 1.3571 | 1572.6 | 1.301
